Reference: patent US20070190172A1, “Enhanced activity biocidal hydrogen peroxide composition” (ASEPTIX TECHNOLOGIES B.V., priority 2006, published 2007)

Experiments:
Enterococcus hirae = experiment: EN 1276 bactericidal suspension test; type: cell-based; conditions: 1.2% H2O2 + 0.6% surfactant
From the text: (§1) Biocidal activity of a composition for use according to the invention is preferably determined by a controlled bactericidal suspension test conform European Norm for chemical disinfectants and antiseptics EN 1276 (EN 1276: Quantitative suspension test for the evaluation of bactericidal activity of chemical disinfectants and antiseptics used in food, industrial, domestic, and institutional areas: test method and requirements). An effective biocidal composition is a composition that provides at least a log 3 reduction after a 1 minute contact time with a Staphylococcus aureus test suspension of 10^8 cfu per ml, preferably at least a log 4 reduction, more preferably at least a log 5 reduction, most preferably at least a log 6 reduction.
(§2) Bactericidal activity of the exemplified compositions was tested using a controlled bactericidal suspension test conform European Norm for chemical disinfectants and antiseptics EN 1276 (EN 1276: Quantitative suspension test for the evaluation of bactericidal activity of chemical disinfectants and antiseptics used in food, industrial, domestic, and institutional areas: test method and requirements). One ml of a test suspension containing about 10^8 cfu of the test microorganism per ml is added to 8 ml of the composition to be tested, and 1 ml milli-Q water is added. In some experiments, a protein load was added to this suspension according to the EN 1276 procedures to simulate unclean practical conditions. To provide for a clean condition 0.3% Bovine Albumin was added and for a dirty condition 3% Bovine Albumin.
(§3) After 1, 2 and 5 minutes contact time, the amount of viable bacteria was determined.
(§4) To simulate unclean practical conditions, a protein load was added according to the EN 1276 procedures to bacterial test suspensions. To provide for a clean condition 0.3% Bovine Albumin was added and for a dirty condition 3% Bovine Albumin. The performance of Monafax 1214 was compared with that of the N,N-Dimethyldecylamine-N-oxide (Barlox 10s of Lonza Ltd.). A H2O2 concentration of 1.2% was used and a 0.6% of the respective surfactants. The solution containing Monafax has a pH of around 2.3 and the solution containing Barlox 10s has a pH of around 5.

Candida albicans = experiment: EN 1276 bactericidal suspension test; type: cell-based; conditions: 1.2% H2O2 + 0.6% surfactant
From the text: as §1, §2, §3, §4

Lysteria monocytogenes = experiment: EN 1276 bactericidal suspension test; type: cell-based; conditions: 1.2% H2O2 + 0.6% surfactant
From the text: as §1, §2, §3, §4

Bacillus cereus = experiment: EN 1276 bactericidal suspension test; type: cell-based; conditions: 1.2% H2O2 + 0.6% surfactant
From the text: as §1, §2, §3, §4

Staphylococcus aureus [1] = experiment: EN 1276 bactericidal suspension test; type: cell-based; conditions: 1.2% H2O2 + 0.6% surfactant
From the text: as §1, §2, §3

Feline Calici Virus = experiment: EN 14476 virucidal quantitative suspension test; type: cell-based
Procedure: (§5) In a similar way, fungicidal and virucidal activity was tested using tests dedicated for use with fungi of viruses. For fungi or yeasts, the tests according to European norms EN 1275, EN 1650 or EN 13624 were used. For viruses, the test according to European norm EN 14476 was used.
(§6) A composition comprising 2% H2O2 and 1% Monafax 1214 was prepared and tested against Vacciniavirus, Feline Calici Virus and Adenovirus according to the […] norm:
(§7) EN 14476—Chemical disinfectants and antiseptics—Virucidal quantitative suspension test for chemical disinfectants and antiseptics used in human medicine—Test methods and requirements (phase 2/step 1).

Adenovirus = experiment: EN 14476 virucidal quantitative suspension test; type: cell-based
Procedure: as §5, §6, §7

Staphylococcus aureus [2] = conditions: background statement; cited from earlier work
[3] = clean condition 0.3% Bovine Albumin, 2 min
[4] = clean condition 0.3% Bovine Albumin, 5 min
[5] = dirty condition 3% Bovine Albumin, 2 min
[6] = dirty condition 3% Bovine Albumin, 5 min

CCCCCCCCCC[N+](C)(C)[O-] [Barlox 10s (Lonza), N,N-Dimethyldecylamine-N-oxide]
number of colonies, clean, 2 min (Enterococcus hirae; [3]): 8
number of colonies, clean, 5 min (Enterococcus hirae; [4]): 0
number of colonies, dirty, 2 min (Enterococcus hirae; [5]): 6
number of colonies, dirty, 5 min (Enterococcus hirae; [6]): 1
number of colonies, clean, 2 min (Candida albicans; [3]): 300
number of colonies, clean, 5 min (Candida albicans; [4]): 250
number of colonies, dirty, 2 min (Candida albicans; [5]): >300
number of colonies, dirty, 5 min (Candida albicans; [6]): >300
number of colonies, clean, 2 min (Lysteria monocytogenes; [3]): >300
number of colonies, clean, 5 min (Lysteria monocytogenes; [4]): >300
number of colonies, dirty, 2 min (Lysteria monocytogenes; [5]): >300
number of colonies, dirty, 5 min (Lysteria monocytogenes; [6]): >300
number of colonies, clean, 2 min (Bacillus cereus; [3]): >300
number of colonies, clean, 5 min (Bacillus cereus; [4]): >300
number of colonies, dirty, 2 min (Bacillus cereus; [5]): >300
number of colonies, dirty, 5 min (Bacillus cereus; [6]): >300
number of colonies, clean, 2 min (Staphylococcus aureus [1]; [3]): >300
number of colonies, clean, 5 min (Staphylococcus aureus [1]; [4]): >300
number of colonies, dirty, 2 min (Staphylococcus aureus [1]; [5]): >300
number of colonies, dirty, 5 min (Staphylococcus aureus [1]; [6]): >300

OO [2% H2O2, hydrogen peroxide]
log reduction, 3 minutes (Feline Calici Virus): log 0.2
log reduction, 5 minutes (Feline Calici Virus): log 0.9
log reduction, 5 minutes (Adenovirus): log 0.6
log reduction, 10 minutes (Adenovirus): log 0.6

OO [3% w/w hydrogen peroxide, hydrogen peroxide]
time to achieve a greater than 6 log reduction in Staphylococcus aureus (Staphylococcus aureus [2]): 20 minutes

OO [3% H2O2, hydrogen peroxide]
log reduction, 5 minutes (Adenovirus): log 0.5
log reduction, 10 minutes (Adenovirus): log 0.6

OO [hydrogen peroxide]
time to achieve a greater than log 6 reduction in Staphylococcus aureus (Staphylococcus aureus [2]): 20 seconds
